Results on three compounds are retold here after PMC5624969, “Coupled reactions by coupled enzymes: alcohol to lactone cascade with alcohol dehydrogenase–cyclohexanone monooxygenase fusions” (Applied Microbiology and Biotechnology, 2017).

Assay [1] addresses T1, TmCHMO (Thermocrispum municipale, UniProt A0A1L1QK40).
T1 construct: recombinant from E. coli, gene from pBAD-His-Tag-SUMO-TmCHMO
T1 sequence (A0A1L1QK40 1-541): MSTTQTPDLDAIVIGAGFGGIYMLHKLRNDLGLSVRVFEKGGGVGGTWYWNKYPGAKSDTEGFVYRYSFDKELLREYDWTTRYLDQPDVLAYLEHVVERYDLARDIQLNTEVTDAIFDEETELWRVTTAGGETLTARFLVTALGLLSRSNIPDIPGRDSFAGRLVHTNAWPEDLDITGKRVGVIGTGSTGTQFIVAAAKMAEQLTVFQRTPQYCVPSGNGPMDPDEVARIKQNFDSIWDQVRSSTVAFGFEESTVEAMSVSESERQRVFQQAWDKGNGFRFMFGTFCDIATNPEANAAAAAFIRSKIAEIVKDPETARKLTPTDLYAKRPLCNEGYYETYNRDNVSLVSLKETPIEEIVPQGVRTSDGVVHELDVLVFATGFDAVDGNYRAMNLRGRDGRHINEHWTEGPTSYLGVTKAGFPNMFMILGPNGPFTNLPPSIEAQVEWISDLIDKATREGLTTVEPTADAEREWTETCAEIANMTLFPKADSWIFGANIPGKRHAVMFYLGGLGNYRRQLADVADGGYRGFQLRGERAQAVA
As to the kind of experiment: ThermoFAD, release of FAD on unfolding. Format: binding. The note with it: 10 uM enzyme, +0.5 °C/min.

In assay [2] the target is T1, TmCHMO. As to the kind of experiment: inhibition of thioanisole oxidation, NADPH depletion at […] nm. The note with it: read-out: K I (estimated). Format: biochemical.
Assay [3] addresses T1, TmCHMO. The assay is described as above. Format: biochemical. The note with it: read-out: 50% reduction of activity.

For the compound `Cc1cc2nc3c(=O)[nH]c(=O)nc-3n(C[C@H](O)[C@H](O)[C@H](O)COP(=O)(O)OP(=O)(O)OC[C@H]3O[C@@H](n4cnc5c(N)ncnc54)[C@H](O)[C@@H]3O)c2cc1C` [FAD], the “ThermoFAD, release of FAD on unfolding” value on TmCHMO [1] is recorded as “the release of the FAD from TmCHMO upon unfolding could be detected”.
On to `OC1CCCCC1` [cyclohexanol], for which, on TmCHMO [2], the Ki was under 2 mM.
Turning to `O=C1CCCCCO1` [ε-caprolactone], the IC50 on TmCHMO [3] came to 66 mM.
